This is an account of results in ChEMBL document CHEMBL4808211, “Exploration and Biological Evaluation of Basic Heteromonocyclic Propanamide Derivatives as SARDs for the Treatment of Enzalutamide-Resistant Prostate Cancer” (J Med Chem, 2021).

In the test the test system is MR49F. As to the kind of experiment: animal or person. As to conditions: Mus musculus, po, 672 h, read-out: TGI.

Description: Antitumor activity against human MR49F cells xenografted in NOD SCID NSG mouse assessed as tumor growth inhibition at 60 mg/kg/day, po measured twice weekly for 28 days relative to control

Regarding `C[C@](O)(Cn1cc(-c2ccc(F)cc2)nn1)C(=O)Nc1ccc(C#N)c(C(F)(F)F)c1`, the inhibition in vivo at 60 mg/kg/day turned out to be 95%.
